Measured values: patent US9045505B2, “Nitric oxide donors” (University of Otago, priority 2006, dated 2015)

Target: T1, cytochrome c oxidase (Rattus norvegicus, UniProt P05503)
T1 construct: from tissue; host or cells: rat liver mitochondria
Test: NO generation and respiration in isolated liver mitochondria (NO and O2 electrodes)
Type: biochemical
Details: succinate
Experimental: FIG. 9 is a series of traces and graphs showing membrane potential-dependent MitoSNAP mitochondrial uptake and NO^• generation. (a-d) Liver mitochondria were incubated in KCl medium supplemented with rotenone in a stirred 3 ml chamber and electrodes were used to measure the concentrations of O2 and NO^• simultaneously. Where indicated succinate (10 mM), OxyHb (5 μM) or FCCP (500 nM) were added. For (a) and (b) 2 mg mitochondrial protein/ml and 20 μM MitoSNAP (a) or SNAP (b) were used. For (c) and (d) 0.5 mg mitochondrial protein/ml and 5 μM MitoSNAP were used. There was no effect of 5 μM MitoNAP on respiration or NO^• production. All traces are from typical experiments repeated at least twice. (e-f) Mitochondria (1 mg protein) were incubated in 1 ml KCl medium without neocuproine or DTPA, supplemented with rotenone and succinate in the absence (e) or presence (f) of FCCP (500 nM). Mitochondria were then pelleted by centrifugation (10,000×g) then aliquots of the supernatant (700 μl) were mixed with 700 μl 0.1% TFA and analyzed by RP-HPLC. The amount of MitoSNAP and MitoNAP were calculated as the percentage of their peak areas relative to the sum of both peak areas.
Nitrite, nitric oxide and S-nitrosothiol measurements. Nitrite was analyzed by the Griess assay (Molecular Probes). Nitric oxide was measured using an NO^• electrode (World Precision Instruments Ltd, UK) connected to an Apollo 4000 Free Radical Analyser. The electrode was inserted into a stirred, sealed 3 ml chamber with a Clark type O2 electrode (Rank Brothers, UK) built into its base and was thermostatted at 37° C. The NO^• electrode was calibrated by adding SNAP to argon-purged, saturated CuCl. OxyHb was prepared by reduction of bovine methemoglobin with sodium dithionite. Protein S-nitrosothiols were measured using a chemiluminescence assay in an EcoMedics CLD 88 Exhalyzer (Annex, Herts, UK) (Feelisch, M. et al. Concomitant S—, N—, and heme-nitros(yl)ation in biological tissues and fluids: implications for the fate of NO in vivo. FASEB. J. 16, 1775-85 (2002)).
Mitochondrial incubations were usually in KCl buffer (120 mM KCl, 10 mM HEPES, 1 mM EGTA, 100 μM N,N-bis(2-bis[carboxymethyl]aminoethyl) glycine (DTPA) and 10 μM neocuproine, pH 7.2) with 10 mM succinate and 4 μg/ml rotenone in the dark at 37° C., unless stated otherwise. An electrode selective for the TPP moiety of MitoSNAP and MitoNAP was made and used as described previously (Asin-Cayuela, J., Manas, A. R., James, A. M., Smith, R. A. & Murphy, M. P. Fine-tuning the hydrophobicity of a mitochondria-targeted antioxidant. FEBS Letts. 571, 9-16 (2004)). Respiration rates were measured in a Clark type O2 electrode (Rank Brothers, UK). To measure GSH and GSSG, mitochondria (1 mg protein/ml) were incubated with 0-10 μM MitoSNO1 or MitoNAP for 10 min, pelleted by centrifugation and the GSH and GSSG contents assessed by the recycling assay (Scarlett, J. L., Packer, M. A., Porteous, C. M. & Murphy, M. P. Alterations to glutathione and nicotinamide nucleotides during the mitochondrial permeability transition induced by peroxynitrite. Biochem. Pharmacol. 52, 1047-1055 (1996)). The measurement of exposed mitochondrial protein thiols is described below.
Following its accumulation within mitochondria MitoSNAP interacted with the GSH-rich matrix to release NO^• which then affected respiration by competitively inhibiting O2 consumption at cytochrome c oxidase. […] Mitochondria were incubated with the complex I inhibitor rotenone in the absence of substrate to prevent Δψ generation, and addition of 20 μM MitoSNAP produced a small amount of NO^•, presumably due to MitoSNAP diffusion into the mitochondrial matrix and reaction with GSH (FIG. 9a).
To explore further the Δψ-dependence of NO^• production by MitoSNAP, studies with decreased concentrations (5 μM) and fewer mitochondria (0.5 mg protein/ml) were undertaken (FIGS. 9c & d). […]

[1] = 20 μM, 2 mg mitochondrial protein/ml
[2] = 5 μM, 0.5 mg mitochondrial protein/ml

| SMILES | NO production by energized mitochondria [1] | effect on respiration [1] | NO production by energized mitochondria [2] | effect on respiration [2] |
| --- | --- | --- | --- | --- |
| CC(=O)NC(C(=O)O)C(C)(C)SN=O (racemic) [SNAP, S-nitroso-N-acetyl-DL-penicillamine, reference compound] | negligible | did not affect respiration |  |  |
| CC(=O)NC(C(=O)NCCCCC[P+](c1ccccc1)(c1ccccc1)c1ccccc1)C(C)(C)SN=O.CS(=O)(=O)[O-] (stereo not drawn) [MitoSNAP, [5-(2-acetylamino-3-methyl-3-nitrosothio-butyrylamino)-penty1]-triphenylphosphonium methanesulfonate] | rapid increase in NO^• production | respiration rate slowed | dramatic increase in NO^• production | decreased respiration |
